According to PubChem BioAssay (NCI):
“And” between values parts separate entries of the source, which are not always exact repeats. Identical values can stand only once.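 These data come from cells grown in 96-well plates and exposed to compound for 48 hours at five concentrations. GI50 is the concentration that inhibits growth by half. The concentration for full growth arrest is given as TGI.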

Key:
Test in all cases: NCI tumour cell line growth inhibition, 48 h
[1] = tested on: IGROV1 ovarian
[2] = tested on: MALME-3M melanoma
[3] = tested on: SF-295 CNS
[4] = tested on: PC-3 prostate
[5] = tested on: SR leukemia
[6] = tested on: NCI-H226 lung
[7] = tested on: SK-MEL-2 melanoma
[8] = tested on: KM12 colon
[9] = tested on: SK-MEL-5 melanoma
[10] = tested on: MCF7 breast

Compound | GI50 [1] [µM] | TGI [1] [µM] | GI50 [2] [µM] | TGI [2] [µM] | GI50 [3] [µM] | TGI [3] [µM] | GI50 [4] [µM] | TGI [4] [µM] | GI50 [5] [µM] | TGI [5] [µM] | GI50 [6] [µM] | TGI [6] | GI50 [7] [µM] | TGI [7] [µM] | GI50 [8] [µM] | TGI [8] [µM] | GI50 [9] [µM] | TGI [9] [µM] | GI50 [10] | TGI [10]
O=C(OCc1ccc2c(Cl)cc(Cl)c(O)c2n1)N1CCN(C(=O)c2cc3cc(F)ccc3[nH]2)CC1 | 1.99 | > 100 | 3.71 | > 100 | 9.49 | > 100 | 1.59 | > 100 | 0.401 | > 100 | 45.4 | > 100 µM | 3.23 | > 100 | 0.58 | > 41.3 | 1.11 | 3.9 | 0.404 µM | > 100 µM
NC(=S)N/N=C/c1cc(-c2cccc(N)c2)ccn1 | 3.05 | > 24.5 | 1.31 | 24 | 1.66 | 31 | 1.07 | > 100 | 0.346 | > 27.9 | 1.73 | 8.18 µM | 3.6 | 43.8 | 1.11 | > 41.2 | 1.69 | 7.26 | 2 µM | > 44.8 µM
Nc1ccc2nc3n(c2c1)C(=O)c1ccccc1-3 |  | > 100 |  | > 100 |  | > 100 |  | > 100 |  | > 100 |  | > 100 µM |  | > 100 |  | > 100 |  | > 100 |  | > 100 µM
O=C(N/N=C/c1c(Cl)cccc1Cl)c1ccc(C(F)(F)F)nc1Nc1cccc(C(F)(F)F)c1 | 1.01 | 13.9 | 2.17 | 9.23 | 1.16 | > 29.2 | 0.767 | > 21.1 | 0.457 | 14.4 | 1.53 | 6.74 µM | 1.87 | 8.19 | 1.1 | > 30 | 0.829 | 2.84 | 1.03 µM | > 35.8 µM
O=[N+]([O-])c1ccc(CSCc2ccc(Cl)cc2)cc1 |  | > 100 |  | > 100 |  | > 100 |  | > 100 |  | > 100 |  | > 100 µM |  | > 100 |  | > 100 |  | > 100 |  | > 100 µM
Cc1nn(C(=O)c2ccc(Cl)cc2)c2c1C(c1ccc(O)cc1)SC(N)=N2 (stereo unspecified) |  | > 10 |  | > 10 |  | > 10 |  | > 10 |  | > 10 |  | > 10 µM |  | > 10 |  | > 10 |  | > 10 |  | > 10 µM
CC1=CC(=O)C(C(O)(C(F)(F)F)C(F)(F)F)C(C)(C)C1 (stereo unspecified) |  | > 10 |  | > 10 |  | > 10 |  | > 10 |  | > 10 |  | > 10 µM |  | > 10 |  | > 10 |  | > 10 |  | > 10 µM
O=C(N/N=C/c1ccc([N+](=O)[O-])o1)c1ccc(O)cc1 | 5.19 | 23.1 | 1.11 | 2.56 | 4.26 | > 100 | 27 | > 100 | 2.84 | > 100 | 12.7 | > 100 µM | 11.3 | > 100 | 5.43 | > 100 | 1.47 | 2.88 | 2.84 µM | 14 µM
CCCCCCCCCCN1CCC(N2CCCCC2)CC1 | 1.66 | 4.52 | 1.97 | 3.98 | 1.96 | 4.2 | 2 | 13 | 0.627 | 2.98 | 7.55 | 23.4 µM | 2.43 | 6.29 | 1.82 | 3.75 | 1.54 | 2.87 | 1.54 µM | 3.64 µM
C[C@]12CC[C@@H]3c4ccc(O)c([N+](=O)[O-])c4CC[C@H]3[C@@H]1CC[C@@H]2NS(=O)(=O)c1cccc(Br)c1 | 3.22 | 9.35 | 2.17 | 5.4 | 1.68 | 3.13 | 2.56 | 11.1 | 3.09 | 9.41 | 2.9 | 8.53 µM | 2.35 | 5.34 | 1.89 | 4.05 | 1.67 | 3.11 | 1.8 µM | 3.93 µM
C/C(=N\NC(=S)N1CC2CCC(CC2)C1)c1ccccn1 | < 0.01 | 2.29 | 0.121 | 1.49 | 0.178 | 2.08 | 0.026 | 1.75 | 0.0424 | 2.22 | 0.394 | 1.91 µM | 0.419 | 1.99 | 0.0837 | 1.59 | 0.133 | 0.852 | < 0.0145 µM | 1.44 µM
CCN(CC)CCNC(=O)c1ccc(C)c(OCc2ccccc2)c1[N+](=O)[O-] |  | > 100 |  | 31.2 |  | 55.8 |  | > 100 |  | 69.9 |  | 90.3 µM |  | 41 |  | > 81.1 |  | 30.5 |  | > 53.1 µM
C[C@H]1CCC/C=C/[C@@H]2C[C@H](O)C[C@H]2[C@H](O)[C@@H](SCC(O)CO)CC(=O)O1 (stereo partly specified) | 37.2 | > 100 | > 100 | > 100 | 43.8 | > 100 | 32.8 | > 100 | 29 | 96.8 | 18.7 | 44 µM | 25.2 | 66.9 | 3.81 | 20 | 6.3 | 19.5 | 20.5 µM | 47.8 µM
O=C(CCCN1CCC2(CC1)C(=NC1CCCCC1)NC(=O)N2c1ccccc1)c1ccc(F)cc1 |  | 62.2 |  | 29.9 |  | 39.2 |  | 43.3 |  | 46.1 |  | 32.3 µM |  | 31.9 |  | 42.5 |  | 37.9 |  | 33.1 µM
CCCCCCCCCCCCOC1C(C(CC(=O)NCCN2CCCC2)NS(=O)(=O)c2cc(Cl)cc(Cl)c2)OC2OC(C)(C)OC21 (stereo unspecified) | 1.95 | 3.6 | 1.89 | 3.62 | 1.9 | 4.69 | 1.64 | 3.02 | 1.48 | 3.83 | 1.86 | 4.04 µM | 2.63 | 4.95 | 1.81 | 3.45 | 1.81 | 3.27 | 1.98 µM and 1.73 µM | 3.91 µM and 3.51 µM
O=C(Nc1ccc(Cl)c(Cl)c1)Nc1ccccc1O | 6.48 | 29.3 | 4.82 | 20.3 | 3.06 | 11.3 | 3.09 | 27.9 | 4.57 | 24.8 | 15.9 | 53.7 µM | 5.51 | 17 | 3.35 | 13.7 | 7.71 | 20.5 | 4.14 µM | 21.3 µM
COc1ccc(Cc2cnc(NC(=O)c3ccc4c(c3)OCCO4)s2)cc1 | 0.0485 | > 55.2 | 1.52 | > 61.6 | 0.0242 | 20.8 | 0.0303 | > 100 | 0.0114 | > 100 | 1.72 | 88.5 µM | 0.0545 | > 78.4 | 0.0264 | 11.1 | 0.0268 | 0.168 | 0.0307 µM | > 100 µM
COC(C(=O)[C@@H](O)[C@@H](C)O)[C@@H]1Cc2cc3cc(O[C@H]4C[C@@H](O[C@H]5C[C@@H](O)[C@H](O)C(C)O5)[C@H](O)C(C)O4)c(C)c(O)c3c(O)c2C(=O)[C@H]1O[C@H]1C[C@@H](O[C@H]2C[C@@H](O[C@H]3C[C@@H](O)[C@H](OC)C(C)O3)[C@@H](O)C(C)O2)[C@H](O)C(C)O1 (stereo partly specified) | 0.0239 | > 33.3 | 0.011 | 0.088 | 0.0141 | > 33.3 | 0.0317 | > 33.3 |  | > 33.3 | 0.0209 | > 33.3 µM |  | 0.0392 |  | > 33.3 | 0.00955 | 0.0444 | 0.00728 µM | > 33.3 µM
Cc1ncc([N+](=O)[O-])n1CCNS(=O)(=O)CCCn1ncnc1[N+](=O)[O-] |  | > 100 |  | > 100 |  | > 100 |  | > 100 |  | > 100 |  | > 100 µM |  | > 100 |  | > 100 |  | > 100 |  | > 100 µM
N#Cc1ccc(OC(=O)Nc2ccc(Cl)c(Cl)c2)cc1 | 4.04 | > 100 | 3.81 | 20.6 | 2.54 | 7.64 | 2.87 | 21.6 | 7.67 | 93.2 | 3.8 | > 100 µM | 4.13 | 18 | 3.27 | 12.8 | 6.03 | 19.4 | 2.6 µM | 11.6 µM
O=c1[nH]c(=O)n([C@H]2CCCO2)cc1F | 2270 | > 5000 | 1360 | > 5000 | > 4530 | > 5000 |  | > 5000 | 473 | > 2360 | 3650 | 720 µM and > 5000 µM | 1950 | > 5000 | 1320 | > 5000 | 429 | > 2600 | 575 µM | > 5000 µM
CC[C@@]1(O)C(=O)OCc2c1cc1n(c2=O)Cc2c-1nc1cc(F)c(C)c3c1c2[C@@H](N)CC3 | 0.0162 | 1.59 | < 0.014 | 0.281 | < 0.01 | 0.0915 | 0.02 | > 100 | < 0.01 | > 100 | < 0.01 | 0.0358 µM | 0.138 | 1.4 | 0.0203 | 24.7 | < 0.01 | 0.0203 | < 0.01 µM | > 100 µM
Cc1cc(C)n(-c2nnc3n2N=C(c2ccc(-c4ccccc4)cc2)CS3)n1 | 4.81 | > 100 | 3.44 | 17 | 2.64 | 7.63 | 3.15 | > 100 | 3.06 | > 100 | 4.24 | > 100 µM | 2.58 | 7.17 | 3.49 | > 100 | 2.46 | 5.88 | 2.84 µM | > 100 µM
Cc1cc2c(nn1)-c1ccccc1C2=O |  | > 10 |  | > 10 |  | > 10 |  | > 10 |  | > 10 |  | > 10 µM |  | > 10 |  | > 10 |  | > 10 |  | > 10 µM
Nc1nc(N)nc(CCCc2nc(N)nc(N)n2)n1 |  | > 100 |  | > 100 |  | > 100 |  | > 100 |  | > 100 |  | > 100 µM |  | > 100 |  | > 100 |  | > 100 |  | > 100 µM
